Measurements reported in US11008290B2, “Halogenated quinoline derivatives as antimicrobial agents” (University of Florida Research Foundation, Incorporated, priority 2015, dated 2021).
In brackets after ≈: the same amount, converted by molar mass. Like-named read-outs stand apart in the source and are kept apart here.

Columns and labels:
[1] = test system: methicillin-resistant Staphylococcus aureus-2 (MRSA-2; clinical isolate); test: Minimum inhibitory concentration (MIC) susceptibility assay, broth microdilution; type: cell-based; conditions: read-out: MRSA-2 MIC
Procedure: (§1) The minimum inhibitory concentration (MIC) for each compound was determined by the broth microdilution method as recommended by the Clinical and Laboratory Standards Institute (CLSI). In a 96-well plate, eleven two-fold serial dilutions of each compound were made in a final volume of 100 μL Luria Broth. Each well was inoculated with ˜10^5 bacterial cells at the initial time of incubation, prepared from a fresh log phase culture (OD600 of 0.5 to 1.0 depending on bacterial strain). […] The concentration range tested for each compound during this study was 0.10 to 100 μM. DMSO served as the vehicle and negative control in each microdilution MIC assay. DMSO was serially diluted with a top concentration of 1% v/v. Bacterial strains used: methicillin-resistant Staphylococcus aureus-2 (MRSA-2; clinical isolate from Shands Hospital in Gainesville, Fla.), methicillin-resistant Staphylococcus epidermidis (MRSE; ATCC 35984), vancomycin-resistant Enterococcus faecium (VRE, ATCC 700221).

[2] = test system: methicillin-resistant Staphylococcus epidermidis (MRSE; ATCC 35984); test: as above; type: cell-based; conditions: read-out: MRSE MIC
Procedure: as §1

[3] = test system: vancomycin-resistant Enterococcus faecium (VRE, ATCC 700221); test: as above; type: cell-based; conditions: read-out: VRE MIC
Procedure: as §1

MRSA BAA-1707 = test: Calgary Biofilm Device (CBD) MBC/MBEC determination; type: cell-based, Staphylococcus aureus; conditions: for MBC: Staphylococcus aureus, read-out: MRSA BAA-1707 MBC; for MRSA BAA-1707 MBEC: biofilm eradication, second value of cell
Procedure: (§2) Biofilm eradication experiments were performed using the Calgary Biofilm Device to determine MBC/MBEC values for various compounds of interest (Innovotech, product code: 19111). The Calgary device (96-well plate with lid containing 96 total pegs to establish biofilms; 1 peg/well) was inoculated with 125 μL of a mid-log phase culture diluted 1,000-fold in tryptic soy broth with 0.5% glucose (TSBG) to establish bacterial biofilms after incubation at 37° C. for 24 hours. The lid of the Calgary device was then removed, washed and transferred to another 96-well plate containing 2-fold serial dilutions of the test compounds (the “challenge plate”). The total volume of media with compound in each well in the challenge plate was 150 μL. The Calgary device was then incubated at 37° C. for 24 hours. The lid was then removed from the challenge plate and MBC/MBEC values were determined using different final assays. […] The MBC values were determined as the concentration giving a lack of visible bacterial growth (e.g., turbidity). For determination of MBEC values, the Calgary device lid (with attached pegs/treated biofilms) was transferred to a new 96-well plate containing 150 μL of fresh TSBG media in each well and incubated for 24 hours at 37° C. to allow viable biofilms to grow and disperse resulting in turbidity after the incubation period. […] In select experiments, treated pegs from the Calgary device were removed from lead biofilm eradicators after final incubation, sonicated for 30 minutes in PBS and plated out to determine biofilm cell killing (e.g., colony forming unit per milliliter, CFU/mL).

human red blood cells = test: Hemolysis assay; type: cell-based
Procedure: Freshly drawn human red blood cells (hRBC with ethylenediaminetetraacetic acid (EDTA) as an anticoagulant) were washed with Tris-buffered saline (0.01M Tris-base, 0.155M sodium chloride (NaCl), pH 7.2) and centrifuged for 5 minutes at 3500 rpm. The washing was repeated three times with the buffer. In 96-well plate, the test compounds were added to the buffer. […] The plate was then incubated for 1 hour at 37° C. After incubation, the plate is centrifuged for 5 minutes at 3500 rpm. Then 80 μL of the supernatant were transferred to another 96-well plate and the Optical Density (OD) was read at 405 nm. […] The percent of hemolysis was calculated as (OD405 of the compound-OD405 DMSO)/(OD405 Triton X-OD405 buffer).

[4] = test system: MRSA-2 planktonic cells and biofilms; test: Calgary Biofilm Device (CBD) MBC/MBEC determination; type: cell-based, Staphylococcus aureus; conditions: planktonic killing, CBD, first value of MBC/MBEC cell
Procedure: as §2

[5] = test system: MRSE (ATCC 35984) planktonic cells and biofilms; test: as above; type: cell-based, Staphylococcus epidermidis; conditions: for MBC: Staphylococcus epidermidis
Procedure: as §2

[6] = test system: VRE (ATCC 700221) planktonic cells and biofilms; test: as above; type: cell-based, Enterococcus faecium; conditions: Enterococcus
Procedure: as §2

[7] = Table 4, planktonic killing, CBD, first value of cell
[8] = Table 2, human red blood cells, 1 hour at 37° C.
[9] = Staphylococcus, MRSA, Table 3, at least three independent experiments
[10] = Staphylococcus epidermidis, Table 3
[11] = Staphylococcus aureus, MRSA, Table 3, read-out: MRSA-2 MBC
[12] = Table 3, planktonic killing, CBD, first value of cell, read-out: MRSE MBC
[13] = Table 3, planktonic killing, CBD, first value of cell, footnote c = lowest concentration tested, read-out: VRE MBC

SMILES | melting point [°C] | MIC ([3]; Table 3) [µM] | MBC (MRSA BAA-1707; [7]) [µM] | MIC [1, 9] [µM] | MIC [2, 10] [µM] | MBC [4, 11] [µM] | MBC [5, 12] [µM] | % Haemolysis at 200 μM (human red blood cells; human, 1 h, pH 7.2) [%] | MBC [6, 13] [µM] | other results
OCc1ccc2c(Br)cc(Br)c(O)c2n1 [HQ-11, 5,7-dibromo-2-(hydroxymethyl)quinolin-8-ol] | 131 to 133 |  |  |  |  |  |  |  |  | 
CC(O)c1ccc2c(Br)cc(Br)c(O)c2n1 (stereo not drawn) [HQ-13, 5,7-dibromo-2-(1-hydroxyethyl)-8-hydroxyquinoline] | 114 to 116 |  |  |  |  |  |  |  |  | 
N=C(N)c1ccc2c(Br)cc(Br)c(O)c2n1 [HQ-14, 5,7-dibromo-8-hydroxyquinoline-2-carboximidamide] | 172 to 174 |  |  |  |  |  |  |  |  | 
CC(=O)NC[C@H]1CN(c2ccc(N3CCOCC3)c(F)c2)C(=O)O1 [Linezolid, reference compound] |  | 3.13 (≈ 1.06 µg/mL) | 31.3 (≈ 10.6 µg/mL) |  |  |  |  |  |  | MIC ([1]; Staphylococcus, MRSA, Table 2, 2 to 6 independent experiments): 3.13 µM (≈ 1.06 µg/mL); MIC ([1]; Table 3, at least three independent experiments): 3.13 µM (≈ 1.06 µg/mL); MIC ([2]; Staphylococcus epidermidis, Table 2, ATCC 35984): 3.13 µM (≈ 1.06 µg/mL); MIC ([2]; Table 3): 3.13 µM (≈ 1.06 µg/mL); MIC ([3]; Table 2, ATCC 700221): 3.13 µM (≈ 1.06 µg/mL); MRSA BAA-1707 MBEC (MRSA BAA-1707; Table 4, CBD): unable to eradicate; % Haemolysis at 200 μM (human red blood cells; [8]): ≤1%; % Haemolysis at 200 μM (human red blood cells; Table 3, human red blood cells): ≤1%
Oc1c(Br)cc(Br)c2ccc(CNc3ccc(F)cc3)nc12 [RA-HQ-12] |  | 0.78 (≈ 0.332 µg/mL) | 15.6 (≈ 6.65 µg/mL) | 0.39 (≈ 0.166 µg/mL) | 0.39 (≈ 0.166 µg/mL) | 31.3 (≈ 13.3 µg/mL) | 3.9 (≈ 1.66 µg/mL) | ≤1 | 1 (≈ 0.426 µg/mL) | fold more potent than HQ-1 (MBEC) (MRSA BAA-1707; MRSA BAA-1707): 6 fold; MBEC:MBC ratio ([5]; MRSE 35984, CBD): ~1
Oc1c(Br)cc(Br)c2ccc(CNc3ccccc3Br)nc12 [RA-HQ-16] |  | 0.78 (≈ 0.38 µg/mL) | 93.8 (≈ 45.7 µg/mL) | 1.56 (≈ 0.76 µg/mL) | 0.2 (≈ 0.0974 µg/mL) | 188 (≈ 91.6 µg/mL) | 46.9 (≈ 22.8 µg/mL) | ≤1 | 7.8 (≈ 3.8 µg/mL) | 
Oc1c(I)cc(I)c2ccc(CNc3ccc(Br)cc3)nc12 [RA-HQ-23] |  | 25 (≈ 14.5 µg/mL) |  | 25 (≈ 14.5 µg/mL) | 12.5 (≈ 7.26 µg/mL) | > 1000 | 125 (≈ 72.6 µg/mL) | 3.3 | 31.3 (≈ 18.2 µg/mL) | 
CN[C@H](CC(C)C)C(=O)N[C@H]1C(=O)N[C@@H](CC(N)=O)C(=O)N[C@H]2C(=O)N[C@H]3C(=O)N[C@H](C(=O)N[C@H](C(=O)O)c4cc(O)cc(O)c4-c4cc3ccc4O)[C@H](O)c3ccc(c(Cl)c3)Oc3cc2cc(c3O[C@@H]2O[C@H](CO)[C@@H](O)[C@H](O)[C@H]2O[C@H]2C[C@](C)(N)[C@H](O)[C@H](C)O2)Oc2ccc(cc2Cl)[C@H]1O [Vancomycin, reference compound] |  | >100 |  |  |  |  |  |  |  | MIC [3]: > 100 µM; MBC (MRSA BAA-1707): 5.9 µM (≈ 8.55 µg/mL); MRSA BAA-1707 MBEC (MRSA BAA-1707; Table 4, CBD): unable to eradicate; MBC ([4]; Staphylococcus aureus, MRSA, read-out: MRSA-2 Clinical Isolate MBC, Table 2): 3 to 62.5 µM (≈ 4.35 to 90.6 µg/mL); MBC ([4]; Staphylococcus aureus, MRSA, read-out: MRSA-2 MBC, Table 3): 3 µM (≈ 4.35 µg/mL); MBC ([4]; Table 2, read-out: MRSA-2 Clinical Isolate MBC): 3.0 µM (≈ 4.35 µg/mL); MBC ([5]; read-out: MRSE ATCC 35984 MBC): 3 µM (≈ 4.35 µg/mL); MBC ([5]; read-out: MRSE MBC): 3 µM (≈ 4.35 µg/mL); % Haemolysis at 200 μM (human red blood cells; [8]): ≤1%; % Haemolysis at 200 μM (human red blood cells; Table 3, human red blood cells): ≤1%; MBC ([6]; read-out: VRE ATCC 700221 MBC): > 200 µM; MBC ([6]; read-out: VRE MBC): > 200 µM
